2 compounds from US10772836B2, “Method for producing particles” (RICOH COMPANY, LTD., priority 2016, dated 2020) can be followed below.

Data set [1] can be described thus: Oral absorbability of […], blood drug concentration after oral administration (Test Example 6). The data set is classed as in vivo. The conditions noted are these: rat, plasma, male SD rats, single oral dose 10 mg/kg in terms of […]. The procedure:
In order to evaluate an oral absorbability of the pharmaceutical particles produced in Example 2, the pharmaceutical particles of Example 2 and […] bulk powder were orally administrated to male SD rats (from 6 to 8 week-old, available from Japan SLC, Inc.) and then blood drug concentrations were measured over time. Each powder was suspended in water and administrated through a single-dose forced oral administration to the male SD rats at 10 mg/kg in terms of […]. After the oral administration, blood was collected from tail veins over time, transferred to heparinized micro test tubes, and cooled with ice immediately. After the cooling, the blood was rapidly centrifuged to obtain blood plasma. The resultant blood plasma was quantified by an ultra-high performance liquid chromatography (available from Waters) equipped with, as a detector, a single quadrupole mass spectrometer (ACQUITY SQD, available from Waters).

Data set [2] can be described thus: Evaluation test for dissolution property in intrapulmonary-environment imitating liquid (Test Example 7). Type of data set: physicochemical. As to conditions: 37 degrees Celsius, 30 spm. The procedure: Ten milligrams of the pharmaceutical particles were added to 100 mL of an intrapulmonary-environment imitating liquid (0.169 g of magnesium chloride, 5.016 g of sodium chloride, 0.249 g of potassium chloride, 0.059 g of anhydrous sodium sulfate, 0.306 g of calcium chloride dehydrate, 0.794 g of sodium acetate trihydrate, 2.170 g of sodium hydrogen carbonate, 0.080 g of sodium citrate dehydrate, 0.118 g of disodium hydrogen-phosphate, and 0.167 g of dipalmitoylphosphatidylcholine in 1 L of water). […] Thus, the “dissolution property” was evaluated.

Data set [3] concerns blood calcium concentration. The data set can be described thus: Drug efficacy after transpulmonary administration, blood calcium concentration (Test Example 9). Type of data set: in vivo. As to conditions: male SD rats, transpulmonary 40 micrograms/animal in terms of CALCITONIN, time zero = 100%. The procedure: A powder preparation prepared using the pharmaceutical particles of Example 3 was evaluated for a drug efficacy after transpulmonary administration. The powder preparation was prepared by mixing the pharmaceutical particles of Example 3 with lactose (average particle diameter: 50 micrometers, RESPITOSE, available from DMV Japan) in an amount of 5 times as much as the amount of the pharmaceutical particles. The powder preparation was transpulmonary administrated (40 micrograms/animal in terms of CALCITONIN) to male SD rats (from 6 to 8 week-old, available from Japan SLC, Inc.) and then a blood calcium concentration after the administration was measured over time. As a control group, a simply mixed powder was prepared by molding a mixture of CALCITONIN bulk powder and lactose. The CALCITONIN has a pharmacological action of decreasing the blood calcium concentration. Therefore, the blood calcium concentration was selected as an indicator for evaluating the drug efficacy of the pharmaceutical particles of Example 3. The pharmaceutical particles were transpulmonary administrated by inserting an inhaler (DP-4, available from Ina Research Inc.) into the airway under inhalation anesthesia with isoflurane and feeding compressed air. A time point immediately before the transpulmonary administration was defined as time zero. Change in blood calcium concentration over time was evaluated assuming that a blood calcium concentration at the time zero was 100%. The blood calcium concentration was measured using a METALLOASSAY calcium (Ca) measurement LS kit CPZIII (available from Metallogenics Co., Ltd.).

As to `COc1ccc(/C=C/C(=O)Nc2ccccc2C(=O)O)cc1OC` [Tranilast], in data set [1], the bioavailability (usually the share of a dose that reaches the circulation, judged against a reference dose that is usually intravenous) came to 1.2%; the AUC(0-inf) (usually the area under the concentration-time curve extrapolated to infinity) was 800 ± 400 ng·h/mL; the concentration peaked (Cmax) at 100 ng/mL; the time of peak concentration (Tmax) (as a rule, the time at which the peak concentration occurs) was found to be 1.8 ± 0.7 h. Also, the half-life (usually the time needed for the level to fall by half in the phase considered) in data set [1] was 2.9 ± 0.7 h.
On to Calcitonin [Calcitonin bulk powder], for which the Dissolution amount in data set [2] (time 0 hour) came out at 0 µg/mL; in data set [2] (time 0.25 hour) it was 9.56 ± 0.03 µg/mL; in data set [2] (time 0.5 hour), 9.88 ± 0.13 µg/mL; in data set [2] (time 1 hour) it was 9.68 ± 0.20 µg/mL; in data set [2] (time 2 hour), 9.09 ± 0.04 µg/mL; in data set [2] (time 4 hour), 9.01 ± 0.44 µg/mL. The results for the Dissolution amount in data set [2] (time 6 hour), in data set [2] (time 12 hour) and in data set [2] (time 60 hour) were 9.39 ± 0.14 µg/mL, 8.59 ± 0.15 µg/mL and 8.63 ± 0.02 µg/mL, respectively. Further, the Blood calcium concentration was determined as 100% in data set [3] (time 0 h); 81.7 ± 11.6% in data set [3] (time 0.25 h); 74.6 ± 0.9% in data set [3] (time 0.5 h); 81.1 ± 10.1% in data set [3] (time 1 h); 79.5 ± 7.1% in data set [3] (time 2 h); 96.7 ± 5.1% in data set [3] (time 4 h). Besides, the Blood calcium concentration in data set [3] (time 6 h) is on record as 99.1 ± 12.6%; in data set [3] (time 8 h) it was 102.1 ± 15.9%; in data set [3] (time 12 h), 104.3 ± 13.8%; in data set [3] (time 24 h), 110.9 ± 5.5%.
